For data set [1], the system named is wheat (TRIAV, a narrow leaf grass). As to the kind of experiment: Green house % Control of glyphosate samples with various surfactants (Example 1), wheat. It counts as in vivo. Particulars: WT. The source says:
(§1) Four glyphosate samples with various surfactants were sprayed on morning glory (IPOHE, a broad leaf week) and wheat (TRIAV, a narrow leaf grass) in a green house setting. The surfactants are designated in Table 1.
(§2) The glyphosate rates of the spray solutions were 186, 372, and 743 g ae/ha (gram acid equivalent per hectare). […] Higher ratio means lower surfactant concentration. A ratio of 6.7 means the sample, at the same glyphosate concentration, has 2.2 times less surfactant than a sample with a ratio of 3.
(§3) Sample D served as a negative control, since it contained only glyphosate without added surfactant. Sample C served as a positive control since it is well known that tallowamine-15EO is an excellent surfactant to enhance glyphosate efficacy.
(§4) % Control ratings were conducted by an experienced person at 7, 14, 21, and 29 days after treatment (DAT). Digital pictures were also taken at the time of rating. Each % Control value was an average of 4 replicas.

For data set [2], the system named is morning glory (IPOHE, a broad leaf week). As to the kind of experiment: Green house % Control of glyphosate samples with various surfactants (Example 1), morning glory. Particulars: MG. It counts as in vivo.
Description: as §1, §2, §3, §4

Another data set concerns wheat. Description: Example 5 trial of glyphosate formulations on wheat. It counts as in vivo. The conditions noted are these: rate of 168 g ae/ha; glyphosate to surfactant ratio 3:1; 21DAT. The source says:
FIG. 13 is a photo of wheat taken at 21 days after treatment with glyphosate alone, glyphosate with tallowamine-15EO, glyphosate with cocoamine-6EO betaine, and no glyphosate.
Cocoamine-6EO betaine was compared in the same trial with tallowamine-15EO as the positive control and the surfactant-free sample as negative control in glyphosate formulations. Glyphosate to surfactant ratio was 3:1.
This can be seen from the picture at FIG. 13, taken at 21DAT.

Data set [3] can be described thus: Solubility tests of prior art betaines in concentrated glyphosate salt solutions. It counts as physicochemical. The source says: WO2000038523 (Huntsman, U.S. Pat. No. 6,500,784, U.S. Pat. No. 6,653,257, EP1139761) discloses an amphoteric surfactant with the structure RCONH(CH2)nN^+R^12CH2COO^− where R^1 is alkyl or hydroxyl alkyl group with C1 to C4 and n=2-4, and discloses a betaine with the structure R R^12N^+CH2COO^− where R^1 is alkyl or hydroxyl alkyl group with C1 to C4. The amphoterics disclosed there mainly functioned as a co-surfactant to solubilize a ether carboxylate in to concentrated glyphosate systems. In the context of the document, there was no mention of bioefficacy of betaines or other amphoteric surfactants by themselves. […] However, without proper testing of individual surfactant, it is not possible to determine whether the effect seen in the mixture of three surfactants comes from the claimed surfactant or the other two surfactants. Moreover, no actual bioefficacy data and especially no data are provided on the degree of “overall kill” provided in the absence of surfactants and in the presence of surfactants; without such data it is not possible to determine whether or not the claimed alkyl amido betaine was effective in enhancing herbicidal activity of glyphosate under the conditions of the test reported. This patent requires Na ion to be <0.035% for the glyphosate formulation to be stable. Moreover, it used only IPA-glyphosate as examples. […]

For data set [4], the system named is morning glory (IPOHE) and wheat (TRIAV). As to the kind of experiment: Example 1 green house trial, overall statement on adjuvancy. The class given is in vivo. Particulars: glyphosate:surfactant ratio 6.7.
Description: as §1, §2, §4

For another data set, the system named is morning glory and wheat. As to the kind of experiment: Example 3 green house trial, % Control of glyphosate formulations. The conditions noted are these: 930, 465 and 233 g ae/ha; 28 DAT; compared with glyphosate formulation without surfactant. It counts as in vivo. The source says: FIG. 9 is a bar graph illustrating the % control results of applying glyphosate formulation containing oleylamphopolycarboxy glycinate, glyphosate formulation containing tallowamine-10EO, and glyphosate alone, each at 233 g ae/ha, 465 g ae/ha, and 930 g ae/ha to morning glory at 28 days after treatment.
FIG. 10 is a bar graph illustrating the % control results of applying glyphosate formulation containing oleylamphopolycarboxy glycinate, glyphosate formulation containing tallowamine-10EO, and glyphosate alone, each at 233 g ae/ha, 465 g ae/ha, and 930 g ae/ha to wheat at 28 days after treatment.
Glyphosate formulation containing oleylamphopolycarboxy glycinate (Na salt) was compared in a green house trial with glyphosate formulation containing tallowamine-10EO (as positive control) and glyphosate alone in terms of % Control. Three glyphosate rates were used, 930 g ae/ha, 465 gae/ha, and 233 g ae/ha.
The results are plotted in FIGS. 9-10.

Data set [5] has as its system morning glory (IPOHE) and winter wheat (TRZAW). Description: Example 2 green house trial of concentrated glyphosate samples, % control at 28 DAT. It counts as in vivo. Particulars: glyphosate:surfactant 13:1, 489 and 978 g ae/ha, vs glyphosate alone. On the procedure:
The concentrated glyphosate samples were diluted to two glyphosate rates and sprayed in a green house so that the final glyphosate rates of the spray solutions were 489 and 978 g ae/H. Three samples at two rates equals six treatments that were sprayed on each of two species, morning glory (IPOHE, a broad leaf week) and winter wheat (TRZAW, a narrow leaf grass). Two rates were employed, 978 g ae/H, and 16-30 at 489 g ae/ha.
Higher ratio means lower surfactant concentration. A ratio of 13:1 means the sample, at the same glyphosate concentration, has 4.3 times less surfactant than a sample with a ratio of 3:1.
Sample A (glyphosate with added tallowamine-15EO) served as a positive control. Sample B containing only glyphosate without added surfactant served as a negative control.
FIGS. 7-8 illustrates the % control results at 28 DAT.

For the molecule `CC(C)N.O=C(O)CNCP(=O)(O)O` [Sample D, Glyphosate (isopropylamine salt)], the “% Control 7DAT” value worked out at 28% in data set [1] (Glyph rate 186 g ae/h); 58% in data set [1] (Glyph rate 372 g ae/h); 84% in data set [1] (Glyph rate 743 g ae/h); 55% in data set [2] (Glyph rate 186 g ae/h, average of 4 replicas); 86% in data set [2] (Glyph rate 372 g ae/h); 83% in data set [2] (Glyph rate 743 g ae/h). Moreover, the “% Control 14 DAT” value was 60% in data set [1] (Glyph rate 186 g ae/h); 85% in data set [1] (Glyph rate 372 g ae/h); 94% in data set [1] (Glyph rate 743 g ae/h); 68% in data set [2] (Glyph rate 186 g ae/h); 89% in data set [2] (Glyph rate 372 g ae/h); 90% in data set [2] (Glyph rate 743 g ae/h). Moreover, the “% Control 21DAT” value in data set [1] (Glyph rate 186 g ae/h) is 80%; in data set [1] (Glyph rate 372 g ae/h), 89%; in data set [1] (Glyph rate 743 g ae/h) it was 98%; in data set [2] (Glyph rate 186 g ae/h), 79%; in data set [2] (Glyph rate 372 g ae/h) it was 95%; in data set [2] (Glyph rate 743 g ae/h) it was 94%. The “% Control 29DAT” value is listed as 58% in data set [1] (Glyph rate 186 g ae/h); 89% in data set [1] (Glyph rate 372 g ae/h); 98% in data set [1] (Glyph rate 743 g ae/h); 68% in data set [2] (Glyph rate 186 g ae/h); 93% in data set [2] (Glyph rate 372 g ae/h); 91% in data set [2] (Glyph rate 743 g ae/h).
On to `O=C(O)CNCP(=O)(O)O` [glyphosate sample without surfactant, glyphosate], for which the control to wheat result in the data set on wheat is listed as “did not give much control”.
Turning to `CCCCCCCCCCCCCCCCCC(=O)NCCC[N+](C)(C)CC(=O)[O-]` [stearyl dimethylamidopropyl betaine], the “amount of surfactant that could be dissolved” value in data set [3] (in a composition of 51.3% potassium glyphosate (aqueous)) is on record as under 1.8%.
As to Cocodiamine trimethyl betaines, in data set [4], the “speed of glyphosate activity” value was “speeded up glyphosate activity”. Moreover, the adjuvancy for glyphosate entry in data set [4] (186, 372, 743 g ae/ha) is “good adjuvancy for glyphosate even at very low use rate”.
As for “Ethoxylated cocoamine (6EO) betaine [cocoamine-6EO betaine]”, the control to wheat entry with wheat is given as “excellent control”.
coco dimethylamidopropyl betaine: in data set [3] (in a composition of 360 g ae/l potassium glyphosate), the “amount of surfactant that could be dissolved” value was under 80 g/L.
Take “oleylamphopolycarboxy glycinate (Na salt)”: the “enhancement of glyphosate efficacy” value in the data set on morning glory and wheat is reported as “enhanced glyphosate efficacy”.
With tallow diamine trimethyl di-betaine, the “enhancement of glyphosate bioefficacy” value in data set [5] is given as “enhanced glyphosate bioefficacy even at very low rate”.
As to tallowamine-15EO, the control to wheat entry in the data set with wheat is reported as “excellent control”.

Values taken from patent publication US10123533B2, “Nitrogen containing surfactants for agricultural use” (AKZO NOBEL CHEMICALS INTERNATIONAL B.V., priority 2009, dated 2018).
